From article PMC7867085, “In Vitro and In Vivo Antitumor Activity of Indolo[2,3-b] Quinolines, Natural Product Analogs from Neocryptolepine Alkaloid” (Molecules, 2021)

Assays:
[1] = tested on: normal mice (liver homogenate); test: Lipid peroxidation and antioxidant enzymes in liver homogenate of normal mice; type: in vivo, Swiss female albino mice; details: 100 mg/kg SC for 5 days
Source text: (§1) Measuring antioxidant enzyme levels and lipid peroxidation was utilized to evaluate the pharmacological effect of indoloquinoline derivatives. The study group was divided into two subgroups, normal mice and tumor-bearing mice. Each subgroup is further subdivided into two groups, one group received indoloquinoline derivatives, and the other group was marked as a placebo group.
(§2) The eradicated liver was double washed first, with ice-cold normal saline then, with cold 0.15 mol/L Tris-HCl buffer (pH 7.4). The clean organ was dried and weighed, and used to prepare a 10% w/v homogenate in 0.15 mol/L Tris-HCl buffer. A portion of the prepared homogenate was centrifuged at 1500 rpm for 15 min at 4 °C [47] and used for estimating lipid peroxidation, SOD [48] and CAT [49] analysis was carried out using the supernatant.

[2] = tested on: solid-tumor (EAC) bearing mice (liver homogenate); test: Lipid peroxidation and antioxidant enzymes in liver homogenate of solid-tumor bearing mice; type: in vivo, Swiss female albino mice; details: 100 mg/kg for 5 days; for CAT / Lipid Peroxidation / SOD: liver
Protocol: as §1
After administration of indoloquinoline analogs 6a, 6b, 6c and 6d at a dose of 100 mg/kg for 5 constitutive days to mice with EAC, the levels of lipid peroxidation were highly significant less than that of the positive control group (p < 0.001). Meanwhile, the level of SOD in the liver homogenate of positive bearing mice was 32.1% (p < 0.001) less than that of the normal group (Table 5).
as §2

[3] = tested on: splenic lymphocytes of EAC bearing mice; test: Splenic lymphocyte count in EAC bearing mice; type: in vivo, Swiss female albino mice; details: 100 mg/kg SC for 5 days
Protocol: This reduction is reconfirming the reported fact that tumor causes massive depletion in immune cell numbers. Table 7 shown the reduced splenic lymphocyte results were a reaffirmation that cancer disabled normal lymphocyte development. The effective dose of indoloquinoline analogs, given throughout this study; 100 mg/kg for 5 constitutive days subcutaneously, reported an increase in the spleen cell number providing evidence that they protect the lymphoid organ of mice with tumor as illustrated in (Table 7).
Under sterile conditions, the spleens were eliminated, and the single cell suspension was made in RPMI 1640 medium. Splenic lymphocytes were purified as described earlier. Viable splenic lymphocytes were counted in a hemocytometer by trypan blue exclusion test and used for further analysis.
During the study, female Swiss albino mice (normal, treated, and untreated) were anesthetized. Under sterile conditions, after scattering 70% alcohol on the abdominal region, the spleen was removed and then injected with a minor amount of PBS. Spleen was pressed across the fine mesh of the tissue grinder. After centrifuging the produced cell suspension at 1000 rpm for 5 min, the supernatant was discarded, and the cells were washed at room temperature by centrifugation in PBS twice. Trypan blue extrusion method was used to evaluate cell viability, and a phase-contrast microscope was used for cell counting. The experiment was done in tripartite.

[4] = tested on: EAC cells; test: Flow cytometric analysis of cell cycle distribution of EAC cells from treated mice; type: in vivo; details: EAC bearing mice, 100 mg/kg for 5 days; for Apoptotic Cells (sub-G1) / Non-Apoptotic Cells G0/G1 / Non-Apoptotic Cells G2/M / Non-Apoptotic Cells S: percentage of cells
Source text: Flow cytometry is a technique that gives a clue to the mechanism by which cytotoxic agents affect the cell cycle by sorting and analyzing cells based on their content of DNA. Flow cytometry was used to further evaluate the effects of the indoloquinoline compounds modes-of-action to the cellular level, and we extended our studies on the cell cycle effects. To know whether cell cycle changes were aligned with the inhibition of cell growth, the cell cycle phase distribution was examined via flow cytometry. The cell cycle was analyzed in EAC-bearing mice treated with indoloquinoline analogs 6a, 6b, 6c and 6d (at a dose of 100 mg/kg for 5 constitutive days).
Flow cytometry was used to calculate the percentage of cells in each phase of the cell cycle in both positive control (exposed to 0.3% DMSO) and treated cells, results illustrated in (Table 10 and Figure 2). The influence of indoloquinoline derivatives on EAC cells indicated noticeable cell cycle specificity. In comparison with the positive control group, an appreciable change in the cell cycle occurred in giving the studied compounds. The sub-G1 population indicated apoptotic-associated chromatin degradation.
Fresh tumor tissue specimens from treated and untreated groups were transported to our laboratory in isotonic saline. The specimens were prepared following these steps: • The material was washed with isotone tris EDTA buffer. Then, the cell suspension was centrifuged at 1800 rpm for 10 min; the supernatant was then separated; • The cell is then fixed in ice-cold 96–100% ethanol (BDH) in approximately 1 mL for each sample; • Two milliliters of phosphate buffer solution (PBS) were used to wash the sample, which was recentrifuged at 1500 rpm for 5 min then the supernatant was thrown away; • Granules of the Tumor cells were put back into suspension using 200–500 µL of PBS. Into polystyrene tube, 100 µL of the suspension was transferred and then stained with 1.5 mL of propidium iodide. The tube is kept at 4 °C in a dark place for one hour; • The sample was run in the flow cytometer within 30 min after the addition of propidium iodide.
The flow cytometer was carried out with FACS caliber flow cytometer (Becton Dickinson, Sunnyvale, CA, USA) equipped with a compact air cocked low-power 15 m watt argon ion laser beam (488 nm). The average number of evaluated nuclei per specimen 20,000, and the number of nuclei scanned was 120 per second. DNA histogram derived from flow cytometry was obtained with a computer program for Dean and Jett’s mathematical analysis. Data analysis was conducted using DNA analysis program MPDFIT (Verity Software House, Inc. Box 247, Topsham, ME 04086 USA, version: 2.0, power Mac with 131,072 KB Registration No.: 42000960827-16193213 Date made: 16 September 1996). This software calculated the CV around the G0/G1 peak and the percentage of cells in each phase (G0/G1, S and G2/M) of the DNA cell cycle for each sample.

[5] = tested on: liver; test: Histopathological examination of liver sections (H and E); type: in vivo; details: for liver degenerative changes (histopathology): mice treated with compound, Figure 5
Source text: It is well known that the vital organ enables the human body to get rid of toxins, as organic xenobiotics in the liver. Tissue changes in the liver are linked with histological abnormalities. Possible unwanted effects of the Indoloquinolines were checked in the mice group that received the compound; 5 days after subcutaneous injection of the compounds, tumors and livers were fixed in 10% neutral buffered formalin solution and embedded in paraffin. Sections, […], were stained using hematoxylin and eosin (H and E).
Each tumor or liver sample for each mouse was separated and kept in 10% formalin solution and dehydrated in a graded alcohol series. Each specimen was treated with xylene and then inserted in paraffin blocks. The specimen was cut into sections, the thickness of each section is five-micron, hematoxylin, and eosin (H and E) were added for staining. The stained liver specimen was used to assess the degree of degradation and necrosis using a reported scaling system; the scaling system use numbers from 0 to 3 to reflect necrosis severity. Starting from 0, which indicates no necrosis and moves to mild, moderate, and severe necrosis indicated by 1, 2, and 3, respectively. Mild and moderate stages are defined as focal and multifocal necrosis or degradation of hepatocytes, respectively, while severe is characterized by local immense, spread out necrosis or damaged liver cells. Tumor specimen stained with H and E were used to evaluate the severity and percentage of necrosis by the same previously mentioned scaling system.

[6] = 5 days after subcutaneous injection, H and E

| Compound | CAT [1] [KU/mg Tissue/s] | Lipid Peroxidation [1] [nmol MDA/g Tissue] | SOD [1] [U/g Tissue] | increase of CAT level against positive control [2] [%] | increase of SOD level in relation to positive control group [2] [%] | CAT [2] [KU/mg Tissue/s] | Lipid Peroxidation [2] [nmol MDA/g Tissue] | SOD [2] [U/g Tissue] | Splenic Lymphocyte Number [3] | increase in lymphocytic count [3] [%] | increase of G2/M fraction relative to positive control [4] [%] | increase of sub-G1 group as compared to control [4] [%] | reduction of G0/G1 fraction relative to positive control [4] | Apoptotic Cells (sub-G1) [4] | Non-Apoptotic Cells G0/G1 [4] | Non-Apoptotic Cells G2/M [4] | Non-Apoptotic Cells S [4] | necrosis of liver cells ([5]; mouse, in vivo, sc) | increase of G0/G1 cell population relative to positive control [4] [%] | reduction of S-phase fraction relative to positive control [4] | other results |
| --- | --- | --- | --- | --- | --- | --- | --- | --- | --- | --- | --- | --- | --- | --- | --- | --- | --- | --- | --- | --- | --- |
| 5(5-Methyl-5H-indolo[2,3-b] quinolin-11-ylamino) Pyrimidine-2,4(1H,3H)-dione [Compound 6c] | 6.2 ± 0.30 | 251.68 ± 11.9 | 138.6 ± 6.0 | 107.3 | 36.24 | 8.5 ± 0.34 | 262.1 ± 1.9 | 129.47 ± 1.38 | 17.0 ± 0.58 * 10^6/mL | 359.5 | ~269.5 | 683 | about 95.7% | 12.30 ± 0.15 | 3.30 ± 0.15 | 56.20 ± 0.1 | 40.50 ± 2.41 | did not cause necrosis to liver cells |  |  | increase of cells in S-phase relative to positive control [4]: ~411.3% |
| Cn1c2nc3ccccc3c-2c(Nc2ccc(Br)cc2F)c2ccccc21 [Compound 6a, N-(4-Bromo-2-fluorophenyl)-5-methyl-5H-indolo[2,3-b] Quinolin-11-amine] | 6.5 ± 0.39 | 252.1 ± 7.2 | 139.4 ± 2.9 | 51.2 | 54.4 | 6.2 ± 0.14 | 249.3 ± 2.1 | 146.75 ± 2.11 | 20.0 ± 0.73 * 10^6/mL | 440.5 |  | 106 |  | 3.23 ± 0.01 | 90.27 ± 6.35 | 4.61 ± 0.6 | 5.12 ± 0.36 |  | 17.4 | about 35.3% | reduction of G2/M fraction relative to positive control [4]: 69.7%; necrosis of liver cells [5, 6]: did not cause necrosis to liver cells; liver degenerative changes (histopathology) ([5]; H and E): mild degenerative changes |
| 5-Methyl-N-(4-methylpiperazin-1-yl)-5H-indolo[2,3-b] Quinolin-11-amine [Compound 6d] | 6.1 ± 0.20 | 248.69 ± 5.5 | 137.9 ± 3.9 | 65.8 | 39.8 | 6.8 ± 0.12 | 249.9 ± 2.2 | 132.86 ± 0.55 | 17.0 ± 0.61 * 10^6/mL | 359.5 | 263.3 | 975 | 46% | 16.88 ± 0.6 | 41.30 ± 0.31 | 55.26 ± 0.06 | 3.44 ± 0.27 | did not cause necrosis to liver cells |  | 56.6% |  |
| Cn1c2nc3ccccc3c-2c(NCCc2c[nH]c3ccccc23)c2ccccc21 [Compound 6b, N-(2-(1H-Indol-3-yl)ethyl)-5-methyl-5H-indolo[2,3-b] Quinolin-11-amine] | 5.7 ± 0.31 | 247.96 ± 6.3 | 140.2 ± 1.9 | 78.04 | 53.69 | 7.3 ± 0.16 | 268.9 ± 2.8 | 146.06 ± 3.11 | 14.8 ± 1.22 * 10^6/mL | 300 | 26.2 | 1452 |  | 24.36 ± 0.01 | 78.44 ± 0.04 | 19.21 ± 0.09 | 2.35 ± 0.13 |  | 2 | about 70.3% | necrosis of liver cells [5, 6]: did not cause necrosis to liver cells; liver degenerative changes (histopathology) ([5]; H and E): mild diffuse degenerative changes, mild congestion, and scattered lymphocytes |
